Data reported in the METLIN SMRT retention time set (Domingo-Almenara et al. 2019).

Test: gradient 5% acetonitrile 3 min, to 50% in 2 min, to 85% in 15 min, held 3 min, 100 µL/min
Conditions: column: Zorbax Extend-C18 2.1 x 50 mm; eluents: water / acetonitrile, 0.1% formic acid
Outline: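 In both positive and negative ionization mode, a quadrupole time-of-flight mass spectrometer coupled to HPLC analyzed pure standards run in mixtures of ~100 molecules. The Zorbax Extend-C18 column (2.1 × 50 mm, 1.8 μm) was operated at 100 μL/min with water and acetonitrile, each containing 0.1% formic acid. The dead volume was 40 μL and the dwell volume 900 μL. Retention time came from adduct peaks that were computationally picked and individually inspected by hand.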
`Cn1c(C(=O)NC2CC2)cc2c1CCN(Cc1ccc(F)cc1)C2` showed an RP-LC retention time of 590 s. Compound `C=CC(C)(C)c1cc(/C=C/C(=O)c2ccc(O)cc2)c(OC)cc1O` has an RP-LC retention time of 903 s. With `Cn1ncc(Br)c1C(=O)N1CCCC1c1cccc(F)c1` (stereo unspecified) the RP-LC retention time was 867 s. With `Cn1c(N2CCN(C(=O)c3cc4ccccc4[nH]3)CC2)cc(=O)n(C)c1=O` the RP-LC retention time was 691 s. `COc1ccccc1C(=O)N1CCC2(CC1)N=C(c1ccc(Br)cc1)C(=O)N2` showed an RP-LC retention time of 863 s. Compound `COc1ccc(OC)c(NC(=O)Cn2c(N3CCCC3)nc(C)cc2=O)c1` has an RP-LC retention time of 654 s. For `Cc1ncsc1C1N(C2CCN(C(=O)Cn3ccnc3)CC2)C(=O)C12CCCC2` (stereo unspecified), the RP-LC retention time was 594 s. In the case of `CCCNC(=O)c1cn2ccnc(-c3ccc(C)cc3)c2n1`, the RP-LC retention time is reported as 878 s. Work on `CCCN(CCC)S(=O)(=O)c1ccc(C(=O)Nc2nc3c(s2)CCc2ccccc2-3)cc1` yielded an RP-LC retention time of 1310 s. In the case of `CS(=O)(=O)c1cccc(-c2nnc(NC(=O)c3ccc(Cl)s3)o2)c1`, the RP-LC retention time is reported as 711 s. With `COc1ccccc1N1CCN([C@H]2CS(=O)(=O)C[C@@H]2S(=O)(=O)c2ccc(F)c(C)c2)CC1` the RP-LC retention time was 864 s. For `Cc1ccc(S(=O)(=O)Nc2ccc3c(c2)CCC(=O)N3CC(C)C)cc1C`, the RP-LC retention time was 939 s. With `CCCCn1c(=O)c2ccccc2n(Cc2nc(-c3ccc(Cl)cc3)no2)c1=O` the RP-LC retention time was 1280 s. In the case of `O=c1n(Cc2ccc(F)cc2)nc2ccc(S(=O)(=O)N3CCc4ccccc4C3)cn12`, the RP-LC retention time is reported as 983 s. Compound `CCc1ccc(C(=O)N2CCC3(C2)C(=O)Nc2ccc(OC)cc23)cc1` (stereo unspecified) has an RP-LC retention time of 786 s. For `CCCc1cc(N2CCN(C(=O)c3ccsc3)CC2)nc2nnc(C)n12`, the RP-LC retention time was 611 s. With `CCOC(=O)C(C)Sc1nnc2n1CCN2c1ccc(OC)cc1` (stereo unspecified) the RP-LC retention time was 741 s. `COc1ncc(C(=O)NCc2cc(F)cc(F)c2)cn1` gave an RP-LC retention time of 718 s. `CCc1cccc(NC(=O)CN2C(=O)CCc3cc(S(=O)(=O)N4CCCCC4C)ccc32)c1` (stereo unspecified) gave an RP-LC retention time of 998 s. For `CCOc1ccccc1C(=O)Nc1cccn2nc(CC)nc12`, the RP-LC retention time was 1140 s. `Cc1cc(C)n(Cc2nc(-c3ccc(NC(=O)c4ccc5c(c4)OCO5)cc3)oc2C)n1` showed an RP-LC retention time of 888 s. With `COc1ccc(C(C)NC(=O)C2CCN(C(=O)c3ncn4c3COC(c3ccccc3)C4)CC2)cc1` (stereo unspecified) the RP-LC retention time was 754 s. Work on `CCC(NC(=O)c1nnc(-c2ccc(S(=O)(=O)N(C)C)cc2)o1)c1cccs1` (stereo unspecified) yielded an RP-LC retention time of 912 s. In the case of `CC1Cc2ccccc2N1Cc1nnc(-c2ccccc2)o1` (stereo unspecified), the RP-LC retention time is reported as 972 s. For `CN(CC1CCOCC1)S(=O)(=O)Cc1ccccc1`, the RP-LC retention time was 787 s. With `COc1ccc(C(=O)N2CCc3cc(-c4csc(C)n4)ccc32)cc1OC` the RP-LC retention time was 862 s. In the case of `Cc1cc2nn(CC(=O)Nc3cc(F)ccc3C)c(=O)n2c(-c2ccccc2)n1`, the RP-LC retention time is reported as 627 s. `CCCCC(=O)N1CCC2(C1)C(=O)N(C)c1ccccc12` (stereo unspecified) gave an RP-LC retention time of 743 s. Work on `Cc1ccc(NC(=O)C2CCN(S(=O)(=O)c3cc(C(=O)N(C)C)cs3)CC2)c(C)c1` yielded an RP-LC retention time of 804 s. `Cc1cc(C)cc(NC(=O)C2CCCN(c3ccc4cc(S(=O)(=O)N5CCCC5)ccc4n3)C2)c1` (stereo unspecified) gave an RP-LC retention time of 835 s. In the case of `COc1ccc2cc(C(=O)N3CC(n4cc(COCC5CC5)nn4)C3)[nH]c2c1`, the RP-LC retention time is reported as 745 s. Compound `CCC(CC)NC(=O)C1Cn2cccc2C(=O)N1C` (stereo unspecified) has an RP-LC retention time of 661 s. Work on `Cc1ccc(CNC(=O)C2CCCN(c3nc4ccccc4n(Cc4ccccc4)c3=O)C2)o1` (stereo unspecified) yielded an RP-LC retention time of 1150 s. Compound `CCC(Oc1ccc(Cl)cc1)C(=O)OC1CC2CCC(C1)N2C` (stereo unspecified) has an RP-LC retention time of 815 s. `O=C(NCc1ccccn1)C1CCCN(c2ccc(Sc3ccc(Br)cc3)nn2)C1` (stereo unspecified) gave an RP-LC retention time of 702 s. Compound `Cc1ncsc1CN1CCn2c(nnc2[C@@H]2C[C@@H](O)CN2Cc2cccnc2)C1` has an RP-LC retention time of 544 s. For `Cc1cc2c(cc1C(=O)NCCc1c[nH]c3ccccc13)OCCCO2`, the RP-LC retention time was 824 s. `CCOc1cccc(C2CC(c3ccc(Br)cc3)=NC3(CCN(C)CC3)N2)c1O` (stereo unspecified) gave an RP-LC retention time of 649 s. `COc1ccccc1CNC1=NCCNC12CCN(S(=O)(=O)c1ccc(Cl)cc1)CC2` gave an RP-LC retention time of 750 s. `COc1ccccc1CNC(=O)C1CCN(S(=O)(=O)c2ccc3c(c2)CCCC(=O)N3)CC1` showed an RP-LC retention time of 816 s. Work on `CCc1cccc(-n2nnc(C(=O)O)c2CC)c1` yielded an RP-LC retention time of 788 s. In the case of `COc1ccc(CCNS(=O)(=O)c2cc3c4c(c2)CCC(=O)N4CCC3)cc1OC`, the RP-LC retention time is reported as 766 s. Work on `COc1nn(C)cc1C(=O)Nc1ccc(C(=O)Nc2cccc(-c3csc(C)n3)c2)cc1` yielded an RP-LC retention time of 748 s. Compound `O=C(CSc1ccc(N2CCCC(C(=O)NC3CC3)C2)nn1)NCCc1ccc(Cl)cc1` (stereo unspecified) has an RP-LC retention time of 666 s. Work on `CCc1noc(NC(C)=O)c1-c1ccc(C)c(S(=O)(=O)NC2CCC(C)CC2)c1` (stereo unspecified) yielded an RP-LC retention time of 937 s. `COc1ccc(C(=O)NCc2c(-c3ccccc3)nc3sc(C)nn23)cn1` gave an RP-LC retention time of 774 s. Compound `Cc1noc(C)c1CN1CCC(n2c(C)cnc2-c2ccncc2)C1` (stereo unspecified) has an RP-LC retention time of 525 s. Compound `COc1ccc(N2CCN(c3nccc4ccc(C(=O)NCCC5=CCCCC5)cc34)CC2)cc1` has an RP-LC retention time of 888 s. Work on `Cc1cccc(-c2noc(C3CCCN3C(=O)C3CC(=O)N(c4ccc(C)c(C)c4)C3)n2)c1` (stereo unspecified) yielded an RP-LC retention time of 1030 s. For `CN(Cc1nc(Cn2ccn3nc(-c4ccc(F)cc4)cc3c2=O)no1)C1CCCCC1`, the RP-LC retention time was 704 s. Work on `CCOC(=O)c1cnc2nc(-c3ccccc3)nn2c1C` yielded an RP-LC retention time of 917 s. Compound `COCCn1c(C2CCN(S(=O)(=O)c3ccc(C)c(Cl)c3)C2)nc2ccncc21` (stereo unspecified) has an RP-LC retention time of 591 s. Work on `O=C(Cn1ccc2ccccc21)N1CCN(c2ccc(-c3ccccn3)nn2)CC1` yielded an RP-LC retention time of 652 s. For `O=S(=O)(Cc1cccc(Cl)c1)NCC(c1ccc(F)cc1)N1CCOCC1` (stereo unspecified), the RP-LC retention time was 609 s. Work on `Cc1cc(C)cc(NC(=O)Cn2ncc3c(c2=O)N(C2CC2)C(=O)CS3)c1` yielded an RP-LC retention time of 797 s. With `COc1ccc(NC(=O)Cn2c(N3CCOCC3)nc(C)cc2=O)c(OC)c1` the RP-LC retention time was 669 s. In the case of `COc1ccc(C(C)NC(=O)Cc2c[nH]c3ncccc23)cc1` (stereo unspecified), the RP-LC retention time is reported as 614 s. For `O=C(Cc1csc2nc(-c3cccc(Br)c3)cn12)Nc1ccc(F)cc1`, the RP-LC retention time was 959 s. `O=c1oc2c(-c3ccc([N+](=O)[O-])cc3)cc(O)cc2s1` gave an RP-LC retention time of 829 s. `CNC(=O)c1cc2c(s1)N(CC1CC1)CCCC2` gave an RP-LC retention time of 889 s. Work on `CCOC(=O)c1sc(NC(=O)Cc2ccc3c(c2)OCO3)cc1C` yielded an RP-LC retention time of 856 s. For `Cc1ccc(S(=O)(=O)N2CCC(c3noc(-c4ccccc4C)n3)CC2)cc1C`, the RP-LC retention time was 1260 s. Work on `CN(C)CCNC(=O)c1ccc(-c2ccnc(N3CCCC3)n2)cc1` yielded an RP-LC retention time of 560 s. `Cc1ncsc1CN1CC(n2cc(C(=O)NCC3CC3)nn2)C1` gave an RP-LC retention time of 575 s. Work on `CCN(CC)S(=O)(=O)c1ccc2c(c1)c(=O)c(C(=O)N1CCN(c3ccccn3)CC1)cn2C` yielded an RP-LC retention time of 588 s. For `CCC(C(=O)NCCc1c[nH]c2ccc(C)cc12)n1c2ccccc2c2cnn(C)c(=O)c21` (stereo unspecified), the RP-LC retention time was 957 s.
